Laboratory results from patent publication US5861476A, “Peptides and compounds that bind to the IL-1 receptor” (Affymax Technologies N.V., priority 1995, dated 1999).
Where a SMILES comes first, the peptide text is derived from it. [ ]: non-standard residue; d: D form. Bpa = N[C@@H](Cc1ccc(C(=O)c2ccccc2)cc1)C(=O)O; Pip = O=C(O)[C@@H]1CCCCN1; Aze = O=C(O)[C@@H]1CCN1; Sar = CNCC(=O)O

Each compound was assayed against T1, IL-1RtI (Homo sapiens, UniProt P14778) (assay: Inhibition of 125I-IL-1α binding to IL-1RtI (Example 3)). Settings: not given.
T1 construct: made in house; host or cells: recombinant host cells (one form soluble from baculovirus transformed host cells; another PIG-tailed and cleaved from the cell surface)
T1 sequence (P14778 18-336): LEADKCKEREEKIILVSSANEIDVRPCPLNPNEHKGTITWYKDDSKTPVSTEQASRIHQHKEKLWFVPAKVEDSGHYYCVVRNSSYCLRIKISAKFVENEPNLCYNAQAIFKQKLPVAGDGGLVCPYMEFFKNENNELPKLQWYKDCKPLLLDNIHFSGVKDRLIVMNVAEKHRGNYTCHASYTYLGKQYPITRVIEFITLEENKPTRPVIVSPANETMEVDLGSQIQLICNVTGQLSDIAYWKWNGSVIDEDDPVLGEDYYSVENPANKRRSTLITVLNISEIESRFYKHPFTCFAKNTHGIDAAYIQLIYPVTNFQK
Experimental: This example provides the results of experiments conducted to determine an approximate IC50 for certain peptides of the invention. IC50 as used herein refers to the concentration of a compound which will inhibit 50% of the binding between a receptor and its ligand, e.g. IL-1RtI and IL-1. Stock solutions of each peptide were prepared. The appropriate amount of the peptide was dissolved in DMSO, and then nineteen volumes of binding buffer (RPMI 1640, 1% BSA, 20 mM HEPES, pH 7.2-7.3, and 0.1% sodium azide) were added to yield a 1 mM peptide, 5% DMSO stock solution.
One assay utilized a truncated IL-1RtI which had been immobilized on 96-well plates with an appropriate antibody, typically a non-blocking high affinity antibody. In other assays, cells expressing "full-length" IL-1RtI were used with results that yielded IC50 values about 5 to 10 fold lower than those determined using the truncated receptor. The cells were seeded onto Falcon 3072 96-well plates at about 10^5 cells per well, and the plates were incubated overnight at 37° C. in media containing serum. The following morning, the cells were checked to ensure that the cells were confluent and adhered to the bottom of the wells.
According to either assay protocol, the plates were then washed three times with binding buffer, and then 50 μl of binding buffer and 25 μl of a peptide solution (either the stock solution or a dilution thereof; each stock was subjected to five three fold dilutions) were added to each well. Then 25 μl of binding buffer containing ^125 I-IL-1α (final concentration of 90 pM) were added to each well to begin the assay. Each assay was carried out in duplicate. The plates were then incubated for two hours at 4° C. For peptides having particularly high affinities, the assay was run in 24 well plates allowing for higher levels of ligand (possible total volume of 2.5 ml instead of 100 μl in the 96 well plate), thereby minimizing the potential for ligand depletion.
After the two hour incubation, the wells were rinsed three times with ice cold PBS (a semi-automated cell harvesting device was used to conduct the rinse). The receptors or cells were then detached from the plates by adding 100 μl of 0.1N NaOH to each well and incubating the plates at room temperature for 20 minutes. After the 20 minute incubation, about 75 μl of the suspension was counted on a gamma counter, and the IC50 for each peptide was determined using computer assistance and the results of the gamma counting.

IC50 [nM]	Compound
< 500	C[C@@H](O)[C@H](NC(=O)[C@H](Cc1c[nH]c2ccccc12)NC(=O)[C@H](CCC(=O)O)NC(=O)[C@@H](N)Cc1ccccc1)C(=O)N1CCC[C@H]1C(=O)N[C@H](CC(N)=O)C(=O)N[C@@H](Cc1ccc(O)cc1)C(=O)N[C@@H](Cc1ccc(O)cc1)C(=O)N[C@@H](CCC(N)=O)C(=O)N1CC[C@H]1C(=O)N[C@@H](Cc1ccc(O)cc1)C(N)=O [FEWTPnYYQJY-NH2] (H-FEWTP[dN]YYQ[Aze]Y-NH2)
< 500	C[C@@H](O)[C@H](NC(=O)[C@H](Cc1c[nH]c2ccccc12)NC(=O)[C@H](CCC(=O)O)NC(=O)[C@@H](N)Cc1ccccc1)C(=O)N1CCC[C@H]1C(=O)N[C@H](CO)C(=O)N[C@@H](Cc1ccc(O)cc1)C(=O)N[C@@H](Cc1ccc(O)cc1)C(=O)N[C@@H](CCC(N)=O)C(=O)N1CC[C@H]1C(=O)N[C@@H](Cc1ccc(O)cc1)C(N)=O [FEWTPsYYQJY-NH2] (H-FEWTP[dS]YYQ[Aze]Y-NH2)

Same assay, conditions: inhibition of 125I-IL-1α binding to IL-1RtI; soluble peptide unless marked *

IC50 [nM]	Compound
500	C[C@H](NC(=O)CNC(=O)[C@@H]1CCCN1C(=O)[C@@H](NC(=O)[C@H](Cc1c[nH]c2ccccc12)NC(=O)[C@H](CCC(=O)O)NC(=O)[C@@H](N)Cc1ccccc1)[C@@H](C)O)C(=O)N[C@@H](Cc1c[nH]c2ccccc12)C(=O)N[C@@H](CCC(N)=O)C(=O)N1CC[C@H]1C(=O)N[C@@H](Cc1ccc(O)cc1)C(N)=O [FEWTPGAWQJY--NH2] (H-FEWTPGAWQ[Aze]Y-NH2)
≤ 500	C[C@@H](O)[C@H](NC(=O)[C@H](Cc1c[nH]c2ccccc12)NC(=O)[C@H](CCC(=O)O)NC(=O)[C@@H](N)Cc1ccccc1)C(=O)N1CCC[C@H]1C(=O)NCC(=O)N[C@@H](Cc1c[nH]c2ccccc12)C(=O)N[C@@H](Cc1ccc(O)cc1)C(=O)N[C@@H](CCC(N)=O)C(=O)N1CC[C@H]1C(=O)N[C@@H](Cc1ccc(O)cc1)C(N)=O [FEWTPGWYQJY--NH2] (H-FEWTPGWYQ[Aze]Y-NH2)
≤ 100000	C[C@H](NC(=O)[C@H](Cc1ccc(O)cc1)NC(=O)CNC(=O)[C@@H]1CCCN1C(=O)[C@@H](NC(=O)[C@H](Cc1c[nH]c2ccccc12)NC(=O)[C@H](CCC(=O)O)NC(=O)[C@@H](N)Cc1ccccc1)[C@@H](C)O)C(=O)N[C@@H](CCC(N)=O)C(=O)N1CC[C@H]1C(=O)N[C@@H](Cc1ccc(O)cc1)C(N)=O [FEWTPGYAQJY--NH2] (H-FEWTPGYAQ[Aze]Y-NH2)
> 100000	C[C@H](NC(=O)[C@H](Cc1c[nH]c2ccccc12)NC(=O)[C@H](Cc1ccc(O)cc1)NC(=O)CNC(=O)[C@@H]1CCCN1C(=O)[C@@H](NC(=O)[C@H](Cc1c[nH]c2ccccc12)NC(=O)[C@H](CCC(=O)O)NC(=O)[C@@H](N)Cc1ccccc1)[C@@H](C)O)C(=O)N1CC[C@H]1C(=O)N[C@@H](Cc1ccc(O)cc1)C(N)=O [FEWTPGYWAJY--NH2] (H-FEWTPGYWA[Aze]Y-NH2)
≤ 100000	C[C@H](NC(=O)[C@@H]1CCN1C(=O)[C@H](CCC(N)=O)NC(=O)[C@H](Cc1c[nH]c2ccccc12)NC(=O)[C@H](Cc1ccc(O)cc1)NC(=O)CNC(=O)[C@@H]1CCCN1C(=O)[C@@H](NC(=O)[C@H](Cc1c[nH]c2ccccc12)NC(=O)[C@H](CCC(=O)O)NC(=O)[C@@H](N)Cc1ccccc1)[C@@H](C)O)C(N)=O [FEWTPGYWQJA--NH2] (H-FEWTPGYWQ[Aze]A-NH2)
≤ 500	C[C@@H](O)[C@H](NC(=O)[C@H](Cc1c[nH]c2ccccc12)NC(=O)[C@H](CCC(=O)O)NC(=O)[C@@H](N)Cc1ccccc1)C(=O)N1CCC[C@H]1C(=O)N[C@@H](CC(N)=O)C(=O)N[C@@H](Cc1ccc(O)cc1)C(=O)N[C@@H](Cc1c[nH]c2ccccc12)C(=O)N[C@@H](CCC(N)=O)C(=O)N1CC[C@H]1C(=O)N[C@@H](Cc1ccc(O)cc1)C(N)=O [FEWTPNYWQJY--NH2] (H-FEWTPNYWQ[Aze]Y-NH2)
≤ 500	C[C@@H](O)[C@H](NC(=O)[C@H](Cc1c[nH]c2ccccc12)NC(=O)[C@H](CCC(=O)O)NC(=O)[C@@H](N)Cc1ccccc1)C(=O)N1CCC[C@H]1C(=O)N(C)CC(=O)N[C@@H](Cc1c[nH]c2ccccc12)C(=O)N[C@@H](Cc1ccc(O)cc1)C(=O)N[C@@H](CCC(N)=O)C(=O)N1CC[C@H]1C(=O)N[C@@H](Cc1ccc(O)cc1)C(N)=O [FEWTPSarWYQJY--NH2] (H-FEWTP[Sar]WYQ[Aze]Y-NH2)
≤ 500	C[C@@H](O)[C@H](NC(=O)[C@H](Cc1c[nH]c2ccccc12)NC(=O)[C@H](CCC(=O)O)NC(=O)[C@@H](N)Cc1ccccc1)C(=O)N1CCCC[C@H]1C(=O)NCC(=O)N[C@@H](Cc1ccc(O)cc1)C(=O)N[C@@H](Cc1c[nH]c2ccccc12)C(=O)N[C@@H](CCC(N)=O)C(=O)N1CC[C@H]1C(=O)N[C@@H](Cc1ccc(O)cc1)C(N)=O [FEWTPecGYWQJY--NH2] (H-FEWT[Pip]GYWQ[Aze]Y-NH2)
≤ 500	CC(C)[C@@H](NC(=O)[C@@H]1CCCN1C(=O)[C@@H](NC(=O)[C@H](Cc1c[nH]c2ccccc12)NC(=O)[C@H](CCC(=O)O)NC(=O)[C@@H](N)Cc1ccccc1)[C@@H](C)O)C(=O)N[C@@H](Cc1ccc(O)cc1)C(=O)N[C@@H](Cc1c[nH]c2ccccc12)C(=O)N[C@@H](CCC(N)=O)C(=O)N1CC[C@H]1C(=O)N[C@@H](Cc1ccc(O)cc1)C(N)=O [FEWTPvYWQJY--NH2] (H-FEWTP[dV]YWQ[Aze]Y-NH2)
≤ 500	C[C@@H](O)[C@H](NC(=O)[C@H](Cc1c[nH]c2ccccc12)NC(=O)[C@H](CCC(=O)O)NC(=O)[C@@H](N)Cc1ccccc1)C(=O)N(C)CC(=O)NCC(=O)N[C@@H](Cc1ccc(O)cc1)C(=O)N[C@@H](Cc1c[nH]c2ccccc12)C(=O)N[C@@H](CCC(N)=O)C(=O)N1CC[C@H]1C(=O)N[C@@H](Cc1ccc(O)cc1)C(N)=O [FEWTSarGYWQJY--NH2] (H-FEWT[Sar]GYWQ[Aze]Y-NH2)
≤ 100000	CC(C)[C@H](NC(=O)[C@@H](NC(=O)[C@H](Cc1c[nH]c2ccccc12)NC(=O)[C@H](CCC(=O)O)NC(=O)[C@@H](N)Cc1ccccc1)[C@@H](C)O)C(=O)N1CCC[C@H]1C(=O)N[C@@H](Cc1ccc(O)cc1)C(=O)N[C@@H](Cc1c[nH]c2ccccc12)C(=O)N[C@@H](CCC(N)=O)C(=O)N1CC[C@H]1C(=O)N[C@@H](Cc1ccc(O)cc1)C(N)=O [FEWTVPYWQJY--NH2] (H-FEWTVPYWQ[Aze]Y-NH2)
≤ 500	C[C@@H](O)[C@H](NC(=O)[C@H](Cc1c[nH]c2ccccc12)NC(=O)[C@H](CCC(=O)O)NC(=O)[C@@H](N)Cc1ccccc1)C(=O)N1CCC[C@@H]1C(=O)NCC(=O)N[C@@H](Cc1ccc(O)cc1)C(=O)N[C@@H](Cc1c[nH]c2ccccc12)C(=O)N[C@@H](CCC(N)=O)C(=O)N1CC[C@H]1C(=O)N[C@@H](Cc1ccc(O)cc1)C(N)=O [FEWTpGYWQJY--NH2] (H-FEWT[dP]GYWQ[Aze]Y-NH2)

Compound	IC50 [nM]
C[C@@H](O)[C@H](NC(=O)[C@H](Cc1c[nH]c2ccccc12)NC(=O)[C@H](CCC(=O)O)NC(=O)[C@@H](N)Cc1ccccc1)C(=O)N1CCC[C@H]1C(=O)NCC(=O)N[C@@H](Cc1ccc(C(=O)c2ccccc2)cc1)C(=O)N[C@@H](Cc1ccc(O)cc1)C(=O)N[C@@H](CCC(N)=O)C(=O)N1CC[C@H]1C(=O)N[C@@H](Cc1ccc(O)cc1)C(N)=O [FEWTPG--Bpa--YQJY--NH2] (H-FEWTPG[Bpa]YQ[Aze]Y-NH2)	≤ 500
C[C@@H](O)[C@H](NC(=O)[C@H](Cc1c[nH]c2ccccc12)NC(=O)[C@H](CCC(=O)O)NC(=O)[C@@H](N)Cc1ccccc1)C(=O)N1CCC[C@H]1C(=O)NCC(=O)N[C@@H](Cc1ccc(O)cc1)C(=O)N[C@@H](Cc1ccc(C(=O)c2ccccc2)cc1)C(=O)N[C@@H](CCC(N)=O)C(=O)N1CC[C@H]1C(=O)N[C@@H](Cc1ccc(O)cc1)C(N)=O [FEWTPGY--Bpa--QJY--NH2] (H-FEWTPGY[Bpa]Q[Aze]Y-NH2)	≤ 500
C[C@@H](O)[C@H](NC(=O)[C@H](Cc1c[nH]c2ccccc12)NC(=O)[C@H](CCC(=O)O)NC(=O)[C@@H](N)Cc1ccccc1)C(=O)N1CCC[C@H]1C(=O)NCC(=O)N[C@@H](Cc1ccc(O)cc1)C(=O)N[C@@H](Cc1ccc(O)cc1)C(=O)N[C@@H](CCC(N)=O)C(=O)N1CC[C@H]1C(=O)N[C@@H](Cc1ccc(C(=O)c2ccccc2)cc1)C(N)=O [FEWTPGYYQJ--Bpa--NH2] (H-FEWTPGYYQ[Aze][Bpa]-NH2)	≤ 100000
